System: cocaine subjective effects
Experiment: Clinical study: subjective effects of cocaine (visual analogue scale)
Format: in vivo, human
Conditions: humans
Procedure: Subjective effects are measured using a computerized (21 CFR 11 validated) visual analogue scale (VAS). The time points for collection of subjective effects match with those for cocaine blood samples. The following set of VAS are: Drug Liking, Take Drug Again, Overall Drug Liking, High, Good Effects, Bad Effects, Feeling Rush, Desire for Cocaine, Feeling Anxious, Over-Stimulated, and Any Drug Effects.
PD sampling timepoints of VAS parameters after each cocaine dose are as follows: pre-dose, 2, 5, 10, 15, 30, 45, 60, 90, and 120 minutes post dose.

AlbuBChE was tested, and the “VAS Bad Effects” value (following cocaine exposure) was “reduces the feeling of “bad effects””, the “Duration of decreased desire to use cocaine” value (single administration) was “up to one week” and the “VAS Any Drug Effects” value (vs placebo) was “reduces the reporting of “any drug effects.””. The “VAS Desire for Cocaine” value (vs placebo) was “decreases the desire for cocaine”, the “VAS Drug Liking” value (vs placebo) was “decreases cocaine liking” and the “VAS Feeling Anxious” value (vs placebo) was “reduces feelings of anxiousness”. The “VAS Feeling Rush” value (vs placebo) was “decreases subjective feeling of “rush””, the “VAS Good Effects” value (vs placebo) was “decreases the subjective feeling of “good effects”” and the “VAS High” value (vs placebo) was “decreases the “high””. The “VAS Over-Stimulated” value (vs placebo) was “reduces feelings of being over-stimulated”, the “VAS Overall Drug Liking” value (vs placebo) was “decreases overall drug liking” and the “VAS Take Drug Again” value (vs placebo) was “decreases the desire to take cocaine again”.
